From patent US11002524B2, “Cyclic compounds and process for the preparation thereof” (Council of Scientific & Industrial Research, priority 2016, dated 2021)
Converted amounts (≈) assume the structure as drawn. Like-named read-outs stand apart in the source and are kept apart here.

Test system: Salmonella enterica strain AMC (ATCC #6539)
Assay: Antibacterial MIC assay (Promega BacTiter-Glo microbial cell viability assay)
Type: cell-based
Procedure: (§1) The minimum inhibitory concentrations (MICs) are determined using the Promega Bac Titer-Glo microbial cell viability assay, which measures cell viability by quantitation of ATP present, an indicator of metabolic activity of cells. The assays are carried out using Salmonella enterica strain AMC (ATCC #6539), Inocula of S. enterica are prepared from 12-h broth cultures grown in Mueller Hinton broth and the suspensions were then adjusted to a turbidity of 0.5 McFarland. […] Bacterial cells are treated with hunanamycin analogs for 24 hours at ranges from 0.4 to 40 μg/mL and ciprofloxacin as a control ranging from 0.03 to 10 μg/mL. The OD600 is measured using an Envision multi-modal plate reader (Perkin-Elmer, Inc.).
as §1, with “(MICs) were” for “(MICs) are”, “assays were” for “assays are”, “enterica were” for “enterica are”, “cells were” for “cells are”, “OD600 was” for “OD600 is”, “Inc.). The antibiotic assays were performed in Prof. John B. MacMillan's lab, Department of Biochemistry, University of Texas Southwestern Medical Center at Dallas, USA.” for “Inc.).”

[1] = S. enterica AMC ATCC #6539, 24 hours treatment, 0.4 to 40 μg/mL, Mueller Hinton broth, Table 1 in Example 9
[2] = Salmonella enterica, ATCC6539, S. enterica AMC ATCC #6539, 24 hours treatment, 0.4 to 40 μg/mL, Mueller Hinton broth, Table 1 in description, read-out: MIC

| Structure (SMILES) | MIC [1] | MIC [2] | MIC (Salmonella enterica, ATCC6539, 24 h) |
| --- | --- | --- | --- |
| CCn1c(=O)c(=O)n(C[C@H](O)[C@H](O)[C@H](O)CO)c2cc(C)c(C)cc21 [Compound 5, 1-ethyl-6,7-dimethyl-4-((2S,3S,4R)-2,3,4,5-tetrahydroxypentyl)-1,4-dihydroquinoxaline-2,3-dione] | >32 µg/mL | > 32 µg/mL |  |
| Cc1cc2c(cc1C)n(C[C@H](O)[C@H](O)[C@H](O)CO)c(=O)c(=O)n2Cc1ccccc1 [Compound 8, 1-benzyl-6,7-dimethyl-4-((2S,3S,4R)-2,3,4,5-tetrahydroxypentyl)-1,4-dihydroquinoxaline-2,3-dione] | >32 µg/mL | > 32 µg/mL |  |
| CC(C)=CCn1c(=O)c(=O)n(C[C@H](O)[C@H](O)[C@H](O)CO)c2cc(C)c(C)cc21 [Compound 3, 6,7-dimethyl-1-(3-methylbut-2-en-1-yl)-4-((2S,3S,4R)-2,3,4,5-tetrahydroxypentyl)-1,4-dihydroquinoxaline-2,3-dione] | 16 µg/mL (≈ 40.8 µM) | 16 µg/mL (≈ 40.8 µM) |  |
| Cc1cc2[nH]c(=O)c(=O)n(C[C@H](O)[C@H](O)[C@H](O)CO)c2cc1C [Compound 2, 6,7-dimethyl-1-((2S,3S,4R)-2,3,4,5-tetrahydroxypentyl)-1,4-dihydroquinoxaline-2,3-dione] | >32 µg/mL | > 32 µg/mL |  |
| Cc1cc2c(cc1C)n(C[C@H](O)[C@H](O)[C@H](O)CO)c(=O)c(=O)n2CCC1CCCCC1 [Compound 10, 1-(2-cyclohexylethyl)-6,7-dimethyl-4-((2S,3S,4R)-2,3,4,5-tetrahydroxypentyl)-1,4-dihydroquinoxaline-2,3-dione] | 8 µg/mL (≈ 18.4 µM) | 8 µg/mL (≈ 18.4 µM) |  |
| Cc1cc2c3c(c1C)C(C)(C)CCn3c(=O)c(=O)n2C[C@H](O)[C@H](O)[C@H](O)CO [Huanamycin A, 7,7,8,9-tetramethyl-1-((2S,3S,4R)-2,3,4,5-tetrahydroxypentyl)-6,7-dihydro-1H,5H-4l4,41l5-4,41-methanopyrido[3,2,1-ij]quinoxaline-2,3-dione, reference compound] | 8 µg/mL (≈ 20.4 µM) |  | 8 µg/mL (≈ 20.4 µM) |
| Cc1cc2c(cc1C)n(C[C@H](O)[C@H](O)[C@H](O)CO)c(=O)c(=O)n2CC=C1CCCCC1 [Compound 6, 1-(2-cyclohexylideneethyl)-6,7-dimethyl-4-((2S,3S,4R)-2,3,4,5-tetrahydroxypentyl)-1,4-dihydroquinoxaline-2,3-dione] | >32 µg/mL | > 32 µg/mL |  |
| C=CCn1c(=O)c(=O)n(C[C@H](O)[C@H](O)[C@H](O)CO)c2cc(C)c(C)cc21 [Compound 4, 1-allyl-6,7-dimethyl-4-((2S,3S,4R)-2,3,4,5-tetrahydroxypentyl)-1,4-dihydroquinoxaline-2,3-dione] | 16 µg/mL (≈ 43.9 µM) | 16 µg/mL (≈ 43.9 µM) |  |
| CCOC(=O)Cn1c(=O)c(=O)n(C[C@H](O)[C@H](O)[C@H](O)CO)c2cc(C)c(C)cc21 [Compound 7, ethyl 2-(6,7-dimethyl-2,3-dioxo-4-((2S,3S,4R)-2,3,4,5-tetrahydroxypentyl)-3,4-dihydroquinoxalin-1(2H)-yl)acetate] | 16 µg/mL (≈ 39 µM) | 16 µg/mL (≈ 39 µM) |  |
